Results taken from US20090209460A1, “COMPOSITIONS AND METHODS FOR TREATING OBESITY AND RELATED METABOLIC DISORDERS” (Amylin Pharmaceuticals, Inc., priority 2005, published 2009).
Like-named read-outs stand apart in the source and are kept apart here. Residues, ends and D or L forms follow the SMILES beside them.

What was measured:
[1] = degradation in vitro in plasma, serial MS analyses; assay type: in vitro ADME
Source text: Doses at which we observed herein an absence of anorectic effect (in mice) were 1-2 orders of magnitude higher than the lower U8 dose for maximal hemodynamic effects in dogs (Sumi et al. 1987).

[2] = tested on: NIH/Swiss mice; assay: acute food intake assay, lean overnight-fasted NIH/Swiss mice, intraperitoneal injection; assay type: in vivo, mouse; conditions: for FI (60′, 200): % change relative to control, 60 min; for reduction of food intake: administered systemically (i.p. to mice), dose and time not stated; for Food Intake Inhibition: mouse assay, dose of 200 mg/kg, measured at 60 minutes
Method in brief: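 Overnight-fasted lean female NIH/Swiss mice (8-24 weeks, group housed) received vehicle or peptide intraperitoneally at time 0, then pre-weighed standard chow. Food consumed was weighed at 30, 60 and 120 min and expressed as % change versus control.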

[3] = cumulative weight gain in rats with diet induced obesity (rat DIO), subcutaneous pump for seven days; assay type: in vivo; conditions: subcutaneously continuously by pump for seven days
Description: Both compounds were administered subcutaneously continuously by pump for seven days at the rate and dosage indicated.

[4] = body weight and food intake in mice with diet induced obesity (mouse DIO), osmotic pump; assay type: in vivo
Description: The effect of FN38 and related compounds on body weight and food intake in obese subjects was investigated. Mice having diet induced obesity (DIO) were used. All in vivo tests were performed with peripheral injections of peptide. […] 4-week-old male C57BL/6 mice were group housed with water and a standard pelleted mouse chow diet available ad libitum, except as noted, and were maintained on a on a high fat diet (58% kcal from fat) for 4 weeks prior to the experiment. At the end of fattening period, osmotic pumps were implanted interscapularly under anesthesia. Mice received pumps continuously delivering vehicle (50% DMSO in water or saline) or polypeptide at the dose indicated. Food intake and body weight measurements were obtained weekly.

[5] = tested on: rats; conditions: 10 μg ICV dose; cited from earlier work
[6] = brush border membrane (BBM) stability assay; assay type: in vitro ADME, human; conditions: brush border membrane extract (e.g. kidney)
Method in brief: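 Peptides digested up to 5 h at 37 °C with human brush border membrane extract (e.g. kidney). Timepoints quenched with 50% ACN, 1% FA, centrifuged, intact peptide quantified by selected-ion mass spectrometry. Expressed as percent stable.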

[7] = tested on: mice with diet induced obesity (mouse DIO); assay: cumulative food intake in mouse DIO after IP injection (FIGS. 6 and 7); assay type: in vivo; conditions: injected IP at t=0; measured at 30, 60, 120 and 180 min
Description: The activities of the following compounds are shown: A, [MimicB36] FN38; B, [His37] FN38; C,
[His35] FN38; D, [Phe33] FN38; E, [Val33] FN38; F, Des-(Ser6,Lys7,Thr8,Gln9) FN38; G, Des-Val16,Val17-FN38; H, [Phe31] FN38; I, Des-(Val16,Val17,Phe24,Ala25,Ser26,Gln27) FN38; J, Des-(Phe1,Leu2,Phe3,His4)FN38; and K, Des-(Phe24,Ala25,Ser26,Gln27)-FN38. […] Points represent mean±sd of n=4 cages (3 mice/cage). Peptide was injected IP at t=0. Food was introduced immediately after injection and amount consumed measured at t=30, 60, 120, and 180 min. In the figure, * p<0.05 vs. vehicle control; ANOVA, Dunnett's test.

[8] = percent compound remaining after a 5 hour incubation, human brush border membrane assay, read-out: hBBM

Row | Structure (SMILES) | FI (60′, 200) ([2]; food intake) | reduction of food intake [2] | remaining at 5 h [6, 8] | cumulative food intake in mouse DIO (FIGS. 6A, 6B, 7A, 7B) [7] | Food Intake Inhibition [2] | also measured
1 | CC(C)C[C@H](NC(=O)[C@H](Cc1ccccc1)NC(=O)[C@@H](N)Cc1ccc(O)cc1)C(=O)N[C@@H](Cc1ccccc1)C(=O)N[C@@H](CCCNC(=N)N)C(=O)N1CCC[C@H]1C(=O)N[C@@H](CCCNC(=N)N)C(=O)N[C@@H](CC(N)=O)C(N)=O [Compound 163291, reference compound] | −75% |  |  |  |  | degradation in vitro in plasma [1]: rapid degradation; activity in food intake assays ([2]; doses between 100-1000 μg/kg (up to 900 nmol/kg)): inactive; difference in potency between U-8 and rNMU-23 ([2]; food intake, mice): at least 1000 fold
2 | CC(C)C[C@H](NC(=O)[C@H](Cc1ccccc1)NC(=O)[C@H](Cc1ccccc1)NC(=O)CNC(=O)CNC(=O)[C@H](CO)NC(=O)[C@@H]1CCCN1C(=O)[C@H](C)NC(=O)[C@@H](NC(=O)[C@@H]1CCCN1C(=O)CNC(=O)[C@H](CCC(N)=O)NC(=O)[C@H](Cc1ccc(O)cc1)NC(=O)[C@H](CCC(=O)O)NC(=O)[C@H](CC(N)=O)NC(=O)[C@@H](NC(=O)[C@H](CCCCN)NC(=O)[C@@H](N)Cc1ccc(O)cc1)C(C)C)C(C)C)C(=O)N[C@@H](Cc1ccccc1)C(=O)N[C@@H](CCCNC(=N)N)C(=O)N1CCC[C@H]1C(=O)N[C@@H](CCCNC(=N)N)C(=O)N[C@@H](CC(N)=O)C(N)=O [Compound 163293, reference compound] (H-YKVNEYQGPVAPSGGFFLFRPRN-NH2; N-terminus assumed) | −37.5% | up to 66% |  |  |  | cumulative weight gained in rat DIO (FIG. 5) [3]: reduction of cumulative weight gained; body weight gain and food intake in the DIO assay ([4]; 75 nmol/kg/day): decreased body weight gain and food intake; d 14 BWt loss ([4]; mouse DIO, day 14): 3.7%; change in intake (effectiveness) ([2]; food intake over 30 min, mice): −60%; ED50 at t = 60 ([2]; food intake, t = 60): 0.017 mg/kg; ED50 for effect on food intake ([2]; over 30 min, i.p., mice): 6.2 nmol/kg
3 | CC(C)C[C@H](NC(=O)[C@H](Cc1ccccc1)NC(=O)[C@H](Cc1ccc(O)cc1)NC(=O)CNC(=O)[C@H](CCCNC(=N)N)NC(=O)[C@H](CO)NC(=O)[C@H](CCC(N)=O)NC(=O)[C@H](CO)NC(=O)[C@H](C)NC(=O)[C@H](Cc1ccccc1)NC(=O)[C@@H]1CCCN1C(=O)[C@H](CO)NC(=O)[C@H](CCC(N)=O)NC(=O)[C@H](Cc1ccccc1)NC(=O)[C@H](CCC(=O)O)NC(=O)[C@H](CCC(=O)O)NC(=O)[C@H](CC(=O)O)NC(=O)[C@@H](NC(=O)[C@H](CCCNC(=N)N)NC(=O)[C@@H](N)Cc1ccccc1)C(C)C)C(=O)N[C@@H](Cc1ccccc1)C(=O)N[C@@H](CCCNC(=N)N)C(=O)N1CCC[C@H]1C(=O)N[C@@H](CCCNC(=N)N)C(=O)N[C@@H](CC(N)=O)C(N)=O [Compound 165054, reference compound] (H-FRVDEEFQSPFASQSRGYFLFRPRN-NH2; N-terminus assumed) | −65% | at least 91% |  |  |  | reduction in food intake [5]: ~30%; remaining at 5 h ([6]; percent of stable, human brush border membrane extracts, five hours, 37° C., read-out: BBM): 13%; potency administered peripherally versus centrally (i.c.v.), on a presumed concentration basis ([2]; i.p. ED50 in mice compared with literature ICV dose in rats): ~300 fold
4 | CC(C)C[C@H](NC(=O)[C@H](CCCCN)NC(=O)[C@H](CCC(N)=O)NC(=O)[C@@H](NC(=O)[C@H](CCCCN)NC(=O)[C@H](CO)NC(=O)[C@H](Cc1ccc(O)cc1)NC(=O)[C@H](Cc1c[nH]cn1)NC(=O)[C@H](Cc1ccccc1)NC(=O)[C@H](CC(C)C)NC(=O)[C@@H](N)Cc1ccccc1)[C@@H](C)O)C(=O)NCC(=O)N[C@@H](CCCCN)C(=O)N[C@@H](CO)C(=O)N[C@@H](CC(N)=O)C(=O)NCC(=O)N[C@@H](Cc1ccc(O)cc1)C(=O)N[C@@H](Cc1ccccc1)C(=O)N[C@@H](CC(C)C)C(=O)N[C@@H](Cc1ccccc1)C(=O)N[C@@H](CCCNC(=N)N)C(=O)N1CCC[C@H]1C(=O)N[C@@H](CCCNC(=N)N)C(=O)N[C@@H](CC(N)=O)C(N)=O [Des-(Val16-Arg29)FN38] (H-FLFHYSKTQKLGKSNGYFLFRPRN-NH2; N-terminus assumed) |  |  | 91% | reduction of cumulative food intake | −42% | 
5 | CC(C)C[C@H](NC(=O)[C@H](CCCCN)NC(=O)[C@H](CCC(N)=O)NC(=O)[C@@H](NC(=O)[C@H](CCCCN)NC(=O)[C@H](CO)NC(=O)[C@H](Cc1ccc(O)cc1)NC(=O)[C@H](Cc1c[nH]cn1)NC(=O)[C@H](Cc1ccccc1)NC(=O)[C@H](CC(C)C)NC(=O)[C@@H](N)Cc1ccccc1)[C@@H](C)O)C(=O)NCC(=O)N[C@@H](CCCCN)C(=O)N[C@@H](CO)C(=O)N[C@@H](CC(N)=O)C(=O)N[C@@H](CO)C(=O)N[C@@H](CCCNC(=N)N)C(=O)NCC(=O)N[C@@H](Cc1ccc(O)cc1)C(=O)N[C@@H](Cc1ccccc1)C(=O)N[C@@H](CC(C)C)C(=O)N[C@@H](Cc1ccccc1)C(=O)N[C@@H](CCCNC(=N)N)C(=O)N1CCC[C@H]1C(=O)N[C@@H](CCCNC(=N)N)C(=O)N[C@@H](CC(N)=O)C(N)=O [Des-(Val16-Gln27)FN38] (H-FLFHYSKTQKLGKSNSRGYFLFRPRN-NH2; N-terminus assumed) |  |  | 80% | reduction of cumulative food intake | −42% | 
6 | CC(C)C[C@H](NC(=O)[C@H](CCCCN)NC(=O)[C@H](CCC(N)=O)NC(=O)[C@@H](NC(=O)[C@H](CCCCN)NC(=O)[C@H](CO)NC(=O)[C@H](Cc1ccc(O)cc1)NC(=O)[C@H](Cc1c[nH]cn1)NC(=O)[C@H](Cc1ccccc1)NC(=O)[C@H](CC(C)C)NC(=O)[C@@H](N)Cc1ccccc1)[C@@H](C)O)C(=O)NCC(=O)N[C@@H](CCCCN)C(=O)N[C@@H](CO)C(=O)N[C@@H](CC(N)=O)C(=O)N[C@H](C(=O)N[C@H](C(=O)N[C@@H](CCC(=O)O)C(=O)N[C@@H](CCC(=O)O)C(=O)N[C@@H](CC(C)C)C(=O)N[C@@H](CCC(N)=O)C(=O)N[C@@H](CO)C(=O)N1CCC[C@H]1C(=O)N[C@@H](Cc1ccccc1)C(=O)N[C@@H](C)C(=O)N[C@@H](CO)C(=O)N[C@@H](CCC(N)=O)C(=O)N[C@@H](CO)C(=O)N[C@@H](CCCNC(=N)N)C(=O)NCC(=O)N[C@@H](Cc1ccc(O)cc1)C(=O)N[C@@H](Cc1ccccc1)C(=O)N[C@@H](Cc1ccccc1)C(=O)N[C@@H](Cc1ccccc1)C(=O)N[C@@H](CCCNC(=N)N)C(=O)N1CCC[C@H]1C(=O)N[C@@H](CCCNC(=N)N)C(=O)N[C@@H](CC(N)=O)C(N)=O)C(C)C)C(C)C [[Phe33]FN38] (H-FLFHYSKTQKLGKSNVVEELQSPFASQSRGYFFFRPRN-NH2; N-terminus assumed) |  |  | 67% | either not active or weakly active | −32% | 
